Assay results published in the supplement of paper PMC4862054.

tested on: CAL-148; assay: normalised viability (% of control), CellTiter-Blue; higher = more viable cells (about 100 = DMSO control); conditions: 1 nM; incubation time: 72 h
Outline: (§1)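 The reported quantity is normalised viability at a single listed concentration of the series. Compound in 5 µl medium was pre-dispensed into 384-well plates and 20 µl of breast cancer cell suspension was added for 72 h. A 2 h, 37 °C CellTiter-Blue step (2.5 µl) preceded fluorescence reading at 560/590 nm, and plates were normalised to vehicle (100) and a positive kill control (0).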

First: CC(=O)Nc1ccc(C(=O)Nc2ccccc2N)cc1 [CI-994]
Second: NC(=O)Nc1cc(-c2cccc(F)c2)sc1C(=O)N[C@H]1CCCNC1 [AZD 7762]
The normalised viability of the first is lower: 98.1% for the first, 105% for the second.

First: Cc1ccc(C(=O)Nc2ccc(CN3CCN(C)CC3)c(C(F)(F)F)c2)cc1C#Cc1cnc2cccnn12 [Ponatinib]
Second: CCN(CCCOc1ccc2c(Nc3cc(CC(=O)Nc4cccc(F)c4)[nH]n3)ncnc2c1)CCOP(=O)(O)O [Barasertib]
The normalised viability of the first is higher: 103% for the first, 102% for the second.

same assay, conditions: 10 nM; incubation time: 72 h

Going from `Oc1nc(-c2ccc(C(F)(F)F)cc2)nc2c1CSCC2` [XAV-939] to `CC1(C)NC(=O)N(c2ccc([N+](=O)[O-])c(C(F)(F)F)c2)C1=O` [Nilutamide], the normalised viability rises from 92.6% to 95%.

First: N.N.[Cl][Pt][Cl] [Cisplatin]
Second: C[C@@H](Oc1cc(-c2cnn(C3CCNCC3)c2)cnc1N)c1c(Cl)ccc(F)c1Cl [Crizotinib]
The normalised viability of the first is lower: 94.8% for the first, 105% for the second.

Compared with `CN[C@@H]1C[C@H]2O[C@@](C)([C@@H]1OC)n1c3ccccc3c3c4c(c5c6ccccc6n2c5c31)C(=O)N[C@H]4O` [UCN-01], `NCC(=O)CCC(=O)O` [Aminolevulinic acid] is higher in normalised viability: 98.5% for the first, 104% for the second.

tested on: HCC1599; assay: as above; conditions: 10 nM; incubation time: 72 h
Outline: as §1

Going from `CC(=O)Nc1ccc(C(=O)Nc2ccccc2N)cc1` [CI-994] to `NC(=O)Nc1cc(-c2cccc(F)c2)sc1C(=O)N[C@H]1CCCNC1` [AZD 7762], the normalised viability falls from 108% to 101%.

Compared with `Cc1ccc(C(=O)Nc2ccc(CN3CCN(C)CC3)c(C(F)(F)F)c2)cc1C#Cc1cnc2cccnn12` [Ponatinib], `CCN(CCCOc1ccc2c(Nc3cc(CC(=O)Nc4cccc(F)c4)[nH]n3)ncnc2c1)CCOP(=O)(O)O` [Barasertib] is lower in normalised viability: 114% for the first, 101% for the second.

same assay, conditions: 100 nM; incubation time: 72 h

First: Oc1nc(-c2ccc(C(F)(F)F)cc2)nc2c1CSCC2 [XAV-939]
Second: CC1(C)NC(=O)N(c2ccc([N+](=O)[O-])c(C(F)(F)F)c2)C1=O [Nilutamide]
The normalised viability of the first is higher: 116% for the first, 95.5% for the second.

Going from `N.N.[Cl][Pt][Cl]` [Cisplatin] to `C[C@@H](Oc1cc(-c2cnn(C3CCNCC3)c2)cnc1N)c1c(Cl)ccc(F)c1Cl` [Crizotinib], the normalised viability rises from 95.4% to 99.6%.

First: CN[C@@H]1C[C@H]2O[C@@](C)([C@@H]1OC)n1c3ccccc3c3c4c(c5c6ccccc6n2c5c31)C(=O)N[C@H]4O [UCN-01]
Second: NCC(=O)CCC(=O)O [Aminolevulinic acid]
The normalised viability of the first is lower: 56.3% for the first, 87.9% for the second.

tested on: HCC1143; assay: as above; conditions: 10 nM; incubation time: 72 h
Outline: as §1

Going from `CC(=O)Nc1ccc(C(=O)Nc2ccccc2N)cc1` [CI-994] to `NC(=O)Nc1cc(-c2cccc(F)c2)sc1C(=O)N[C@H]1CCCNC1` [AZD 7762], the normalised viability falls from 111% to 105%.

Going from `Cc1ccc(C(=O)Nc2ccc(CN3CCN(C)CC3)c(C(F)(F)F)c2)cc1C#Cc1cnc2cccnn12` [Ponatinib] to `CCN(CCCOc1ccc2c(Nc3cc(CC(=O)Nc4cccc(F)c4)[nH]n3)ncnc2c1)CCOP(=O)(O)O` [Barasertib], the normalised viability rises from 100% to 111%.

same assay, conditions: 100 nM; incubation time: 72 h

Compared with `Oc1nc(-c2ccc(C(F)(F)F)cc2)nc2c1CSCC2` [XAV-939], `CC1(C)NC(=O)N(c2ccc([N+](=O)[O-])c(C(F)(F)F)c2)C1=O` [Nilutamide] is higher in normalised viability: 77.6% for the first, 96.2% for the second.

Going from `N.N.[Cl][Pt][Cl]` [Cisplatin] to `C[C@@H](Oc1cc(-c2cnn(C3CCNCC3)c2)cnc1N)c1c(Cl)ccc(F)c1Cl` [Crizotinib], the normalised viability falls from 103% to 95.8%.

First: CN[C@@H]1C[C@H]2O[C@@](C)([C@@H]1OC)n1c3ccccc3c3c4c(c5c6ccccc6n2c5c31)C(=O)N[C@H]4O [UCN-01]
Second: NCC(=O)CCC(=O)O [Aminolevulinic acid]
The normalised viability of the first is lower: 50.2% for the first, 88.9% for the second.

tested on: DU-4475; assay: as above; conditions: 1 nM; incubation time: 72 h
Outline: as §1

First: CC(=O)Nc1ccc(C(=O)Nc2ccccc2N)cc1 [CI-994]
Second: NC(=O)Nc1cc(-c2cccc(F)c2)sc1C(=O)N[C@H]1CCCNC1 [AZD 7762]
The normalised viability of the first is lower: 93.9% for the first, 113% for the second.

First: Cc1ccc(C(=O)Nc2ccc(CN3CCN(C)CC3)c(C(F)(F)F)c2)cc1C#Cc1cnc2cccnn12 [Ponatinib]
Second: CCN(CCCOc1ccc2c(Nc3cc(CC(=O)Nc4cccc(F)c4)[nH]n3)ncnc2c1)CCOP(=O)(O)O [Barasertib]
The normalised viability of the first is higher: 105% for the first, 102% for the second.

same assay, conditions: 10 nM; incubation time: 72 h

First: Oc1nc(-c2ccc(C(F)(F)F)cc2)nc2c1CSCC2 [XAV-939]
Second: CC1(C)NC(=O)N(c2ccc([N+](=O)[O-])c(C(F)(F)F)c2)C1=O [Nilutamide]
The normalised viability of the first is higher: 111% for the first, 100% for the second.

Going from `N.N.[Cl][Pt][Cl]` [Cisplatin] to `C[C@@H](Oc1cc(-c2cnn(C3CCNCC3)c2)cnc1N)c1c(Cl)ccc(F)c1Cl` [Crizotinib], the normalised viability falls from 103% to 91.3%.

Compared with `CN[C@@H]1C[C@H]2O[C@@](C)([C@@H]1OC)n1c3ccccc3c3c4c(c5c6ccccc6n2c5c31)C(=O)N[C@H]4O` [UCN-01], `NCC(=O)CCC(=O)O` [Aminolevulinic acid] is higher in normalised viability: 101% for the first, 104% for the second.
